Assay results published in patent US11964941B2, “5-Bromo-indirubins” (City of Hope, priority 2014, dated 2024).

How the values were obtained:
[1] = tested on: MOLM13 AML cells; experiment: MTS cell viability, MOLM13 AML cells (FLT3-ITD); type: cell-based, human; conditions: Homo sapiens, MOLM-13, 48 h, read-out: IC50 for 50% inhibition of viability
Experimental: (§1) MTS assays were performed for cell viability. Human cancer cells were seeded in 96-well plates (2500 cells/well for solid tumors, 5000 cells/well for blood tumors), incubated overnight at 37 C in 5% CO2, and exposed to 5IN-1NH1 or 5IN-1NH1s in a dose-dependent manner for 48 h. See FIGS. 1A-1B, 2A-2B, 3, 4A-4B, and 6A-6B. Dimethyl sulfoxide (DMSO) was used as the vehicle control. Viable cell numbers were determined by tetrazolium conversion to its formazan dye and absorbance was measured at 490 nm using an automated ELISA plate reader. Each experiment was performed in quadruplicate. IC50 values were determined using CalcuSyn software (BIOSOFT®, Cambridge GB).
(§2) Compound (1289) inhibits viabilities of MV4-11 and MOLM13 AML cells that harbor an internal tandem duplication (ITD) mutation. MTS assays were performed for cell viability. Human MV4-11 and MOLM13 AML cells (5000/well) were seeded in 96-well plates, incubated overnight at 37° C. in 5% CO2, and exposed to compound (1289) in a dose-dependent manner for 48 h. Dimethyl sulfoxide (DMSO) was used as the vehicle control. Viable cell numbers were determined by tetrazolium conversion to its formazan dye and absorbance was measured at 490 nm using an automated ELISA plate reader. Each experiment was performed in quadruplicate. IC50 values were determined using CalcuSyn software.

[2] = target: FLT3 (ITD) (Homo sapiens, UniProt P36888); experiment: In vitro kinase assay, recombinant FLT3 (ITD); type: biochemical; conditions: 33P-ATP, 120 min
Experimental: (§3) The kinase assays were performed with recombinant class III receptor tyrosine kinase family proteins. Briefly, proteins, freshly prepared substrates and ^33P-ATP (specific activity 0.01 μCi/μl final) were mixed in reaction buffer (20 mM HEPES pH 7.5, 10 mM MgCl2, 1 mM EGTA, 0.02% Brij35, 0.02 mg/ml BSA, 0.1 mM Na3VO4, 2 mM DTT) in the presence of DMSO as control or 5IN-1NH1s. The mixtures were reacted for 120 min at room temperature. Samples were transferred onto P81 ion exchange paper and filters were extensively washed with 0.75% phosphoric acid. The radioactivities were monitored. IC50 values were determined using GraphPad Prism software.
as §3, with “Kinase” for “The kinase”, “FLT3, mutated FLT3-ITD and D835I mutant FLT3 kinases.” for “class III receptor tyrosine kinase family proteins.”, “compound (1289).” for “5IN-1NH1s.”

[3] = tested on: STAT5; experiment: Western blot, phosphorylation of STAT5 in AML cells; type: cell-based, human; conditions: FLT-ITD mutated AML cells (MV4-11, MOLM13), 4h
Experimental: (§4) Western blot analyses were performed with specific antibodies. Briefly, human MV4-11 and MOLM13 AML cells were treated with compound (1289) in a dose-dependent manner for 4h. Whole-cell lysates (40 ug) were resolved by SDS-PAGE. Primary phospho-specific antibodies to p-Stat5 and […] were diluted in TBS (pH 7.5) with 5% (w/v) BSA and 0.1% (v/v) Tween-20 over night at 4° C. Primary specific antibodies to Stat5 and […] were diluted in PBS (pH 7.5) with 5% (w/v) nonfat milk and 0.1% (v/v) Tween-20 overnight at 4° C. Horseradish peroxidase-conjugated secondary antibodies were incubated in PBS (pH 7.5) with 5% (w/v) nonfat milk and 0.1% (v/v) Tween-20 for 1 h at room temperature. Positive immuno-reactive proteins were detected using the ECL system.

[4] = target: c-KIT (Homo sapiens, UniProt P10721); experiment: In vitro kinase assay, recombinant c-KIT; type: biochemical; conditions: 33P-ATP, 120 min
Experimental: (§5) Compound (1289) inhibits activities of FMS, PDGFR α, PDGFR β and c-KIT in vitro. The kinase assays were performed with recombinant FMS, PDGFR α, PDGFR β and c-KIT proteins. Briefly, proteins, freshly prepared substrates and ^33P-ATP (specific activity 0.01 μCi/μl final) were mixed in reaction buffer (20 mM HEPES pH 7.5, 10 mM MgCl2, 1 mM EGTA, 0.02% Brij35, 0.02 mg/ml BSA, 0.1 mM Na3VO4, 2 mM DTT) in the presence of DMSO as control or compound (1289). The mixtures were reacted for 120 min at room temperature. Samples were transferred onto P81 ion exchange paper and filters were extensively washed with 0.75% phosphoric acid. The radioactivities were monitored.
as §3

[5] = tested on: Erk1/2; experiment: Western blot, phosphorylation of Erk1/2 in AML cells; type: cell-based, human; conditions: FLT-ITD mutated AML cells (MV4-11, MOLM13), 4h
Experimental: as §4

[6] = target: FLT3 (D835Y) (Homo sapiens, UniProt P36888, D835Y); experiment: In vitro kinase assay, recombinant FLT3 (D835Y); type: biochemical; conditions: 33P-ATP, 120 min
Experimental: as §3
as §3, with “Kinase” for “The kinase”, “FLT3, mutated FLT3-ITD and D835I mutant FLT3 kinases.” for “class III receptor tyrosine kinase family proteins.”, “compound (1289).” for “5IN-1NH1s.”

[7] = target: PDGFR β (Homo sapiens, UniProt P09619); experiment: In vitro kinase assay, recombinant PDGFR β; type: biochemical; conditions: 33P-ATP, 120 min
Experimental: as §5, §3

[8] = target: FLT3 (Homo sapiens, UniProt P36888); experiment: In vitro kinase assay, recombinant FLT3; type: biochemical; conditions: recombinant FLT3, 33P-ATP, 120 min
Experimental: as §3
as §3, with “Kinase” for “The kinase”, “FLT3, mutated FLT3-ITD and D835I mutant FLT3 kinases.” for “class III receptor tyrosine kinase family proteins.”, “compound (1289).” for “5IN-1NH1s.”

[9] = tested on: MV4-11 AML SQ xenografts; experiment: MV4-11 AML SQ xenografts in vivo; parameters: species or system mouse; conditions: NSG mice, 25 mg/kg orally twice daily for 18 days
Experimental: Human MV4-11 AML cells (5×10^6) were resuspended in serum-free RPMI1640 medium and subcutaneously injected into the flank of 5-6 weeks old NOD/SCID/IL-2rg(ko) (NSG) female mouse. When palpable tumor sizes reached at approximately 100 mm^3, mice were randomly divided into two groups (vehicle=7, treatment=7). Then, compound (1289) was orally administered at 25 mg/kg with vehicle (10% DMSO+30% SOLUTOL®+60% Saline), twice daily for 18 days. Tumor volumes were calculated by the formula 1/2a×b^2, where a is the long diameter, and b is the short diameter. Tumor volumes correlate with tumor weights. The statistical significance of group differences was analyzed using a Student's t-test with the two-tailed distribution. P values less than 0.05 were considered statistically significant.

[10] = target: PDGFR α (Homo sapiens, UniProt P16234); experiment: In vitro kinase assay, recombinant PDGFR α; type: biochemical; conditions: 33P-ATP, 120 min
Experimental: as §5, §3

[11] = tested on: MV4-11 AML cells; experiment: MTS cell viability, MV4-11 AML cells (FLT3-ITD); type: cell-based, human; conditions: Homo sapiens, 48 h, read-out: IC50 for 50% inhibition of viability
Experimental: as §1, §2

[12] = target: FMS (Homo sapiens, UniProt P07333); experiment: In vitro kinase assay, recombinant FMS; type: biochemical; conditions: 33P-ATP, 120 min
Experimental: as §5, §3

PDGFR β, sequence (P09619 33-1106, species assumed): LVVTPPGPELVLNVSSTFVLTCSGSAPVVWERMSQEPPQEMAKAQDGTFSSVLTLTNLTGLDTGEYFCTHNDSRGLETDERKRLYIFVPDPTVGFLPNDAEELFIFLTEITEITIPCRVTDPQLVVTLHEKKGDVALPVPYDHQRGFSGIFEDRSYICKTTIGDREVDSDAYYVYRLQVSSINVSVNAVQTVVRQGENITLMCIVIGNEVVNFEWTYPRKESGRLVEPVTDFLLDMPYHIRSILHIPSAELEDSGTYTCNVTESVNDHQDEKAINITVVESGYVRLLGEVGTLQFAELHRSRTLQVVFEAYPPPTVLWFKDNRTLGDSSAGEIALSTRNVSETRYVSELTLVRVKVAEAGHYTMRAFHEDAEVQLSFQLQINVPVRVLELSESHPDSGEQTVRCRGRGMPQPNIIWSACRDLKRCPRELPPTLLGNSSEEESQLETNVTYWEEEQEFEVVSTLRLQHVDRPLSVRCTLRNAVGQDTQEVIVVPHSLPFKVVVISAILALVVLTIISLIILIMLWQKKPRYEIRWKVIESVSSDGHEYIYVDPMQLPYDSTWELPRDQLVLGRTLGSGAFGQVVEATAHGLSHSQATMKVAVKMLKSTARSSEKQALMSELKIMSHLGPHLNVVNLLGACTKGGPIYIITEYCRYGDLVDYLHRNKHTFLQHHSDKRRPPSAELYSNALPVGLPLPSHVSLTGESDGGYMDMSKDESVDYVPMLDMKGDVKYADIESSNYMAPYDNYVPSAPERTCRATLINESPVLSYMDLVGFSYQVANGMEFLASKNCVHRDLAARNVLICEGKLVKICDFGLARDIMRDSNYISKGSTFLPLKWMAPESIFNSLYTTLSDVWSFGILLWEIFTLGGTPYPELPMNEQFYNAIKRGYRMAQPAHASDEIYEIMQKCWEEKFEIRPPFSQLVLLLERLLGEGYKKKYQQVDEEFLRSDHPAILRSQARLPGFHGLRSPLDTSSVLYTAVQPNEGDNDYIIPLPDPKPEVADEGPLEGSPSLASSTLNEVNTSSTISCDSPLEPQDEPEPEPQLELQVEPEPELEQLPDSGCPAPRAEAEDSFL
PDGFR α, sequence (P16234 24-1089, species assumed): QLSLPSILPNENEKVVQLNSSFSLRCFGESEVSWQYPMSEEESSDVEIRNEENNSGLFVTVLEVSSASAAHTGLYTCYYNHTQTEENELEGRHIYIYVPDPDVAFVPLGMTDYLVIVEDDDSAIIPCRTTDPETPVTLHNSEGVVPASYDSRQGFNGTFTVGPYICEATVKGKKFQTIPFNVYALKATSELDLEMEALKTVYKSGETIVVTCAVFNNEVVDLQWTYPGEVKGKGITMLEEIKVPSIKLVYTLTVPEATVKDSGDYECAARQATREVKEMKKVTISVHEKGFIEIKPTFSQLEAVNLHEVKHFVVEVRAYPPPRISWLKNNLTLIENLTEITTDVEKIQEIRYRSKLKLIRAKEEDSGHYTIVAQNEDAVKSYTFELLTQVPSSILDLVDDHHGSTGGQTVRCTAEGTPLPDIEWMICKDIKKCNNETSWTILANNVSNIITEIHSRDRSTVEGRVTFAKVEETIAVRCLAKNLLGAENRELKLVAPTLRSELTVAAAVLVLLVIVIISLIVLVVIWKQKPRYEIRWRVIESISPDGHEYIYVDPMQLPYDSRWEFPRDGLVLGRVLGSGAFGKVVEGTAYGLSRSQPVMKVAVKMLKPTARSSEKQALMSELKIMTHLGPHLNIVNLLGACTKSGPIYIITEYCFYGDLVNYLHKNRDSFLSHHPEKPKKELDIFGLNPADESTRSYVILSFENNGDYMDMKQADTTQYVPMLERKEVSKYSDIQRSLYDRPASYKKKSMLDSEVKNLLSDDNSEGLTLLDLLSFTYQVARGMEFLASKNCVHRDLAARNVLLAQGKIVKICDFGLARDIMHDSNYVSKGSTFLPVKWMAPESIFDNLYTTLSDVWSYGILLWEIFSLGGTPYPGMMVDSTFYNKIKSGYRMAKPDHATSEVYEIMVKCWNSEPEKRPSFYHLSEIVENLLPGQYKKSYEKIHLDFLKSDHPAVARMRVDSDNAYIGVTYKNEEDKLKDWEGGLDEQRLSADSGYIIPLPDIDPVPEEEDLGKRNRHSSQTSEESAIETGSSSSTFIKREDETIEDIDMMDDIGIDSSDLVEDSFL
c-KIT, sequence (P10721 26-976): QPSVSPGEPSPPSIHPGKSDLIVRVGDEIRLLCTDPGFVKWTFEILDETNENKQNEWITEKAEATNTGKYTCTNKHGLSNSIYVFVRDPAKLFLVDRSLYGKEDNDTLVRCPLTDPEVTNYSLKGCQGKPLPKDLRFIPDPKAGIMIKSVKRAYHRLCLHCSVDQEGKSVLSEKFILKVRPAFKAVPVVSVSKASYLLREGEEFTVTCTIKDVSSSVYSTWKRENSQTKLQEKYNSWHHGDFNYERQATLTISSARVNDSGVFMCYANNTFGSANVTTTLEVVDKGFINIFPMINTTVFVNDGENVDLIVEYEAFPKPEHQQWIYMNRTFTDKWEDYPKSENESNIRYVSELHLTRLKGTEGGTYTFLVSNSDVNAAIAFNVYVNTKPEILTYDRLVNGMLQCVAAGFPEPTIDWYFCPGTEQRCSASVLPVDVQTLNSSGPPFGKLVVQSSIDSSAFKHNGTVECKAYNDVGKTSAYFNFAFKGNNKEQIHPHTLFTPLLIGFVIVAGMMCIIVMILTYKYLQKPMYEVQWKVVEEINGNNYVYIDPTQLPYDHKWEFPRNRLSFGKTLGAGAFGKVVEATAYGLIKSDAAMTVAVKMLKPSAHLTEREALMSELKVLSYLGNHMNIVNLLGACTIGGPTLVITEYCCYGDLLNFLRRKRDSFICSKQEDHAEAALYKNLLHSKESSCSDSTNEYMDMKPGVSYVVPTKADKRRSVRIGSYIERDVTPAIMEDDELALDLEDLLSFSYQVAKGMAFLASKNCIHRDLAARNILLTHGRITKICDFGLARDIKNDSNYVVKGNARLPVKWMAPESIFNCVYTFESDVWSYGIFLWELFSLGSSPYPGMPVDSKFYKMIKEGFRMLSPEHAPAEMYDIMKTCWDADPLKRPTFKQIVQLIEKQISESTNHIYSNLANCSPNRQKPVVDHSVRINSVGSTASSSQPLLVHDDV
FMS, sequence (P07333 20-972, species assumed): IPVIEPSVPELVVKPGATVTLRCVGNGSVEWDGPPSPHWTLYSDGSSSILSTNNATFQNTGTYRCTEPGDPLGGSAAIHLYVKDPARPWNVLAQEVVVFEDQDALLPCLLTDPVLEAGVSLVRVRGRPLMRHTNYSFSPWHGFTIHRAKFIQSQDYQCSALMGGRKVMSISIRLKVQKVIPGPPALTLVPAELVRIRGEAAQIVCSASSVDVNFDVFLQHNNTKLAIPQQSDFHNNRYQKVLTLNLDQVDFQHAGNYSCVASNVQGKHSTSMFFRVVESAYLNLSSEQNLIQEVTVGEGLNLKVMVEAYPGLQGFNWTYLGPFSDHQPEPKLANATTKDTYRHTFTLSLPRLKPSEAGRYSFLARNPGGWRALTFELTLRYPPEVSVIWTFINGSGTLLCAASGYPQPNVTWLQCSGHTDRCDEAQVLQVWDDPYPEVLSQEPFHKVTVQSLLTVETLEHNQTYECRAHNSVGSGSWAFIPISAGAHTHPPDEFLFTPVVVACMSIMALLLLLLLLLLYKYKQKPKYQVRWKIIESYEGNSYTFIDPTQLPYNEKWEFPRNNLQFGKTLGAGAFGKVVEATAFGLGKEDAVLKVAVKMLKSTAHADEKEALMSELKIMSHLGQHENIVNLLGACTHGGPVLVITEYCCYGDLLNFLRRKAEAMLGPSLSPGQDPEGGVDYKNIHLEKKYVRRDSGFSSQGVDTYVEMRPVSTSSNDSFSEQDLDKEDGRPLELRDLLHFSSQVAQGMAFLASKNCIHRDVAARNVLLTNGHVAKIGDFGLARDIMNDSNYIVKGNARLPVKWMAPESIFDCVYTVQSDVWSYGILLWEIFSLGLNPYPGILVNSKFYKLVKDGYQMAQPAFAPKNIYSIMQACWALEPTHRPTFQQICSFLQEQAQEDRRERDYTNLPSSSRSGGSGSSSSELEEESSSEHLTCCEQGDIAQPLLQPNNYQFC

- IC50 [1]: 2.3 nM
- IC50 [2]: 0.56 nM
- IC50 [4]: 47.7 nM
- IC50 [6]: < 0.5 nM
- IC50 [7]: 1.2 nM
- IC50 [8]: 0.68 nM
- IC50 [10]: 13.6 nM
- IC50 [11]: 1.8 nM
- IC50 [12]: 7.6 nM
Compound: O=C1Nc2ccc(Br)cc2C1=C1Nc2ccccc2C1=NOCCN1CCNCC1 [Compound (1289)]
- phosphorylation of STAT5 [3]: blocked phosphorylation
- phosphorylation of Erk1/2 [5]: blocked phosphorylation
- efficacy in vivo on MV4-11 AML SQ xenografts [9]: shows efficacy in vivo
